{"source": "patent US20240182456A1", "about": "“2-((4-((S)-2-(4-CHLORO-2-FLUOROPHENYL)-2-METHYLBENZO[D][1,3]DIOXOL-4-YL)PIPERIDIN-1-YL)METHYL)-1-(((S)-OXETAN-2-YL)METHYL)-1H-IMIDAZOLE DERIVATIVES AS ACTIVATORS OF THE GLP1 RECEPTOR FOR THE TREATMENT OF OBESITY” (Novartis AG, priority 2021, published 2024)", "key": {"[1]": {"target": "T1, human GLP1R (hGLP1R) (Homo sapiens, UniProt P43220)", "T1 sequence (P43220 24-463)": "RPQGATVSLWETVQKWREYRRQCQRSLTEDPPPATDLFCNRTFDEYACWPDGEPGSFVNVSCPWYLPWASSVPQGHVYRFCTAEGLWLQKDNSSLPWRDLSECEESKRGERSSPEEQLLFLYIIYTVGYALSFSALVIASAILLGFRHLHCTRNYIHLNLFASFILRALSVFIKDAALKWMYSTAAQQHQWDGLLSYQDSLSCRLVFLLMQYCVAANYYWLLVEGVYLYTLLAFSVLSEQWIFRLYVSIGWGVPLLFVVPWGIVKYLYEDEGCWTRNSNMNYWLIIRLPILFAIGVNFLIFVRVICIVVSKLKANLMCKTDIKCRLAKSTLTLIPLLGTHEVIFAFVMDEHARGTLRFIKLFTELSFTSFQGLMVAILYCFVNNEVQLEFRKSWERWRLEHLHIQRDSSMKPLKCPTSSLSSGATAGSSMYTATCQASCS", "assay": "Human GLP1R cAMP agonist assay (GloSensor)", "assay_type": "cell-based", "conditions": "HEK293-SNAP-hGLP1R-GloSensor cells; for Emax: cAMP, normalized to GLP1(7-36) maximum response, read-out: Emax mean; for EC50: intracellular cAMP, mean n=3 where SEM is given", "method_in_brief": "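HEK293 cells stably expressing SNAP-tagged hGLP1R and the GloSensor-22F cAMP luciferase biosensor, pre-loaded 2 h with substrate, then exposed 12 min at rt to compound (30–0.06 μM, 0.5 mM IBMX, 0.1% BSA). Luminescence normalized to 2 nM GLP1(7-36); EC50 and Emax from 4-parameter logistic fit.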"}, "[2]": {"target": "T1, human GLP1R (hGLP1R)", "assay": "Human GLP1R β-arrestin recruitment assay (PathHunter)", "assay_type": "cell-based", "parameters": "insert synthesized by GeneArt 93-0164 (cells); 93-0491 (vector bundle)", "conditions": "CHO-hGLP1R-β-arrestin cells; for EC50: mean n=2, read-out: Beta-Arrestin assay EC50 Mean; for Emax: relative to GLP1(7-36), read-out: Beta-Arrestin assay Emax", "method": "Compounds 1 to 31 were tested in the following cellular assays that measure the intracellular cAMP concentration, beta-arrestin recruitment and receptor internalization. The cAMP is generated by the activation of GLP1R. The cAMP data obtained is shown in Table 1 (where S.E.M. is included, mean n=3 independent experiments+/−S.E.M). Beta-arrestin is recruited upon activation of GLP1R and the data obtained are shown in Table 2 (mean n=2 independent experiments, +/−S.D). The extent to which the GLP1R is internalized into the cell and away from the plasma membrane following activation is also shown in Table 2 (mean n=2 independent experiments, +/−S.D). EC50 for each assay is defined as the concentration of the compound that leads to half of the maximum response (after baseline correction). Emax is defined as the maximum response observed for the test compound, normalized to the maximum response observed for the endogenous ligand (GLP1(7-36)) to GLP1R.\nThe extent to which agonists recruited β-arrestin was measured using the PathHunter® β-arrestin assay (DiscoverX). This assay measures binding of β-arrestin to the receptor using an enzyme complementation approach. […] When β-arrestin is recruited to the receptor the enzyme becomes active and generates luminescence in the presence of a chemiluminescent substrate (PathHunter® Detection Kit, DiscoverX cat #93-0001). Luminescence can be measured on a relevant detector. CHO-hGLP1R-β-arrestin cells stably overexpressing hGLP1R with Prolink tag and β-arrestin with EA tag were seeded at 20 μL per well in white 384-well poly-D-Lysine coated plates (Greiner Bio One, cat #781945) in Plating Reagent 2 (DiscoverX, cat #93-0563R2A), and incubated overnight at 37° C., 5% CO2 with humidity. The following day, agonists were prepared at 5 times the final required concentration. To generate triplicate dose response curves, compounds were serially diluted 3-fold in assay buffer (HBSS, 10 mM Hepes and 0.1% BSA), then added to the cell assay plate to a final volume of 25 μL and final top concentrations starting at 30 μM. In the same plate and assay buffer as the tested compounds, were EC100 control wells containing GLP1 (7-36) peptide (Bachem, cat #H-6795) at a final concentration of 1 μM and also EC0 control wells containing no compound. The plate was incubated at 37° C., 5% CO2 with humidity for 2 h after adding the compounds to the cells. Then the detection reagent was prepared (19 parts cell assay buffer, 5 parts substrate reagent 1 and 1 part substrate reagent 2 as per manufacturers recommendations, DiscoverX cat #93-0001), and 12 μL were added per well to the cell assay plate. The plate was incubated for an additional hour in the dark at RT. Luminescence was then measured with an Envision 2104 Multilabel reader with “TRF Light Unit, 337 nm” (Perkin Elmer) using the Ultra-Sensitive protocol setting “384-well US luminescence detector” with the 384-well luminescence aperture, 0.1 sec per well. β-arrestin recruitment was calculated and expressed as percent of the GLP1 (7-36) EC100 control wells: [(sample signal−mean EC0 signal)/(mean EC100 of GLP1 (7-36) signal−mean EC0 signal)]*100 using Microsoft Excel. Curve fitting for EC50 determinations was performed using GraphPad Prism. The 4-parameter logistic model, Hill slope was used: Y=Bottom+(Top−Bottom)/(1+10^((Log EC50−X)*Hill Slope)), where Y is the functional response; X is the compound concentration; bottom is A0 or the minimum value (at 0 dose); top is Ainf or the maximum value (at infinite dose); EC50 is the point of inflection (i.e. the point on the sigmoid shaped curve halfway between A0 and Ainf). The EC50 value was calculated in μM. Emax is the maximal activity detected within the concentration range, derived from the fitted curve relative to GLP1(7-36). […]"}}, "data": [{"smiles": "C[C@]1(c2ccc(Cl)cc2F)Oc2cccc(C3CCN(Cc4ncc(/C=C/C(=O)O)n4C[C@@H]4CCO4)CC3)c2O1", "note": "[Compound C-1, (E)-3-(2-((4-((S)-2-(4-chloro-2-fluorophenyl)-2-methylbenzo[d][1,3]dioxol-4-yl)piperidin-1-yl)methyl)-1-(((S)-oxetan-2-yl)methyl)-1H-imidazol-5-yl)acrylic acid]", "values": [{"measurement": "Emax", "setting": "[1]", "value": 111, "unit": "%"}, {"measurement": "EC50", "setting": "[1]", "value": 0.0197, "unit": "nM"}, {"measurement": "EC50", "setting": "[2]", "value": 494, "unit": "nM"}, {"measurement": "Emax", "setting": "[2]", "value": 9, "unit": "%"}]}, {"smiles": "C[C@]1(c2ccc(Cl)cc2F)Oc2cccc(C3CCN(Cc4nc(/C=C/C(=O)O)cn4C[C@@H]4CCO4)CC3)c2O1", "note": "[Compound C-2, (E)-3-(2-((4-((S)-2-(4-chloro-2-fluorophenyl)-2-methylbenzo[d][1,3]dioxol-4-yl)piperidin-1-yl)methyl)-1-(((S)-oxetan-2-yl)methyl)-1H-imidazol-4-yl)acrylic acid]", "values": [{"measurement": "Emax", "setting": "[1]", "value": 109, "unit": "%"}, {"measurement": "EC50", "setting": "[1]", "value": 2.23, "unit": "nM"}, {"measurement": "EC50", "setting": "[2]", "value": "> 30000", "unit": "nM"}, {"measurement": "Emax", "setting": "[2]", "value": 0, "unit": "%"}]}, {"smiles": "Cc1nc(CN2CCC(c3cccc4c3O[C@@](C)(c3ccc(Cl)cc3F)O4)CC2)n(C[C@@H]2CCO2)c1/C=C/C(=O)O", "note": "[Compound C-5, (E)-3-(2-((4-((S)-2-(4-chloro-2-fluorophenyl)-2-methylbenzo[d][1,3]dioxol-4-yl)piperidin-1-yl)methyl)-4-methyl-1-(((S)-oxetan-2-yl)methyl)-1H-imidazol-5-yl)acrylic acid]", "values": [{"measurement": "Emax", "setting": "[1]", "value": 110, "unit": "%"}, {"measurement": "EC50", "setting": "[1]", "value": 0.0129, "unit": "nM"}, {"measurement": "EC50", "setting": "[2]", "value": 404, "unit": "nM"}, {"measurement": "Emax", "setting": "[2]", "value": 12, "unit": "%"}]}, {"smiles": "C[C@]1(c2ccc(Cl)cc2F)Oc2cccc(C3CCN(Cc4nc(C(F)(F)F)c(C(=O)O)n4C[C@@H]4CCO4)CC3)c2O1", "note": "[Compound C-7, 2-((4-((S)-2-(4-chloro-2-fluorophenyl)-2-methylbenzo[d][1,3]dioxol-4-yl)piperidin-1-yl)methyl)-1-(((S)-oxetan-2-yl)methyl)-4-(trifluoromethyl)-1H-imidazole-5-carboxylic acid]", "values": [{"measurement": "Emax", "setting": "[1]", "value": 109, "unit": "%"}, {"measurement": "EC50", "setting": "[1]", "value": 0.847, "unit": "nM"}, {"measurement": "EC50", "setting": "[2]", "value": "> 30000", "unit": "nM"}, {"measurement": "Emax", "setting": "[2]", "value": 2, "unit": "%"}]}]}
